In patent publication US8551978B2 (Theravance, Inc., priority 2009, dated 2013) one finds Ki, EC50 and inhibition in vivo data, which are given here for 6 molecules.

The target in one assay is hM3 muscarinic receptor (Homo sapiens (Human), UniProt P20309). Kind of assay: Radioligand binding assay for muscarinic receptors ([3H]-NMS displacement, CHO cell membranes). The method, boiled down: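 [3H]-NMS displacement used homogenized CHO membranes, with test compounds at final concentrations of […]. Plates were incubated 6 hours at 37 °C, then filtered and read by liquid scintillation counting. A one-site competition fit gave values that were converted to Ki.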

A further assay has as its target hβ2 adrenergic receptor (Homo sapiens (Human), UniProt P07550). Kind of assay: Assay for determining adrenergic receptor agonist potency (cAMP Flashplate, HEK-293 cells). The class given is cell-based. The following applies: data rounded to nearest 1 nM.
Assay [1] relates to MCh-induced bronchoconstriction. Kind of assay: Einthoven assay: bronchoprotection against methacholine (MCh)-induced bronchoconstriction. The class given is in vivo, rat. As to conditions: inhaled or nasal; rat, 100 μg by inhalation, 24 h after administration; read-out: Broncho. at 24 h. Put shortly:
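Male Sprague-Dawley rats received 100 μg compound (unless stated) or water vehicle by 10-min inhalation. At set times, anesthetized, ventilated rats were challenged with IV MCh at 40 and 80 μg/kg (2.5-min infusions). Ventilation-pressure rise is expressed as % inhibition versus vehicle controls.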

As a reminder, the Ki is a dissociation constant, usually derived from enzyme kinetics or from competition with a known ligand. In general, EC50 refers to the midpoint of the concentration-response curve. Read a low EC50 as an effect from little substance.

Read-outs that look alike come from different tables or passages of the source. Bounds are passed on as bounds.

Chain of hβ2 adrenergic receptor (P07550 whole entry): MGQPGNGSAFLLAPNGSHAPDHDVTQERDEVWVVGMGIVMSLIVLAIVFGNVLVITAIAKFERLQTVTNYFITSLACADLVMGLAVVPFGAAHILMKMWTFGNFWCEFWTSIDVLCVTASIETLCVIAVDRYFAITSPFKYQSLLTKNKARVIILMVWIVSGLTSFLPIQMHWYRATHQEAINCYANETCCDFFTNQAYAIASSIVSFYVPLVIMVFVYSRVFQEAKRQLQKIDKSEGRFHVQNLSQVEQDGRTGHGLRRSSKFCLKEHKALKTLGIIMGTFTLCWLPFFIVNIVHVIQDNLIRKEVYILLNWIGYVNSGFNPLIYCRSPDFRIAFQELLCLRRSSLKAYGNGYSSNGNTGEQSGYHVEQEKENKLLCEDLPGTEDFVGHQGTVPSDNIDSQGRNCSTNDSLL
Chain of hM3 muscarinic receptor (P20309 whole entry): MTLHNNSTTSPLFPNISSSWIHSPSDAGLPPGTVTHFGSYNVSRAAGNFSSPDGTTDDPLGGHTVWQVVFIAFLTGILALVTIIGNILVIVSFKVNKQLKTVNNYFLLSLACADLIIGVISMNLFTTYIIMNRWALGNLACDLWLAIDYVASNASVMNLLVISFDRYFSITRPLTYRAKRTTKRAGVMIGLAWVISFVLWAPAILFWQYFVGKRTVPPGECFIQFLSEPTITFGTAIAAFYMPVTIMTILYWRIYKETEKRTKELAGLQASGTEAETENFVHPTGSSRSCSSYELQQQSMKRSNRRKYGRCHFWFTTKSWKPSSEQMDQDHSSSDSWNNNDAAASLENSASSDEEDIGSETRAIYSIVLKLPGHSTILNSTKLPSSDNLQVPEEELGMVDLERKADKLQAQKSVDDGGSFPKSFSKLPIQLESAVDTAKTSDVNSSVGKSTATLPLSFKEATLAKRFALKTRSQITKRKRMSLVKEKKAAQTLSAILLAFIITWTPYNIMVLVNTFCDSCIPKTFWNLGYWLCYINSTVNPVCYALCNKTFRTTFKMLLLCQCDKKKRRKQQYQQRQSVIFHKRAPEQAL

As for `CC(Cc1ccc(CCNC(=O)Cc2ccc(N(C)C(=O)CCN3CCC(OC(=O)Nc4ccccc4-c4ccccc4)CC3)cc2)cc1)NC[C@H](O)c1ccc(O)c2[nH]c(=O)ccc12` (stereo partly drawn) [Compound I-88], the Ki on hM3 muscarinic receptor is 100 pM. Moreover, the EC50 at hβ2 adrenergic receptor was determined as 1000 pM. Besides, the inhibition in vivo at 0.1 mg in assay [1] is more than 30%.
For `C[C@@H](Cc1ccc(CCNC(=O)Cc2ccc(N(C)C(=O)CCN3CCC(OC(=O)Nc4ccccc4-c4ccccc4)CC3)cc2)cc1)NC[C@H](O)c1ccc(O)c2[nH]c(=O)ccc12` [Compound I-89], the affinity on hM3 muscarinic receptor, expressed as Ki, was 100 pM. Also, on hβ2 adrenergic receptor, a half-maximal response (EC50) required 1000 pM. The inhibition in vivo at 0.1 mg in assay [1] was more than 30%.
As for `CC(Cc1cccc(CCC(=O)NCc2ccc(N(C)C(=O)CCN3CCC(OC(=O)Nc4ccccc4-c4ccccc4)CC3)cc2)c1)NC[C@H](O)c1ccc(O)c2[nH]c(=O)ccc12` (stereo partly drawn) [Compound I-91], the affinity on hM3 muscarinic receptor corresponds to a Ki of 200 pM. The molecule also displayed an EC50 at hβ2 adrenergic receptor of 1000 pM. Moreover, the inhibition in vivo at 0.1 mg in assay [1] was more than 30%.
For `C[C@H](Cc1cccc(CCC(=O)NCc2ccc(N(C)C(=O)CCN3CCC(OC(=O)Nc4ccccc4-c4ccccc4)CC3)cc2)c1)NC[C@H](O)c1ccc(O)c2[nH]c(=O)ccc12` [Compound I-92], the Ki at hM3 muscarinic receptor amounted to 200 pM. Besides, on hβ2 adrenergic receptor, the concentration giving a half-maximal response (EC50) is 1000 pM. Further, in assay [1], the inhibition in vivo at 0.1 mg is more than 30%.
In turn, `COc1ccc(CC(C)NC[C@H](O)c2ccc(O)c3[nH]c(=O)ccc23)cc1CC(=O)NCc1ccc(N(C)C(=O)CCN2CCC(OC(=O)Nc3ccccc3-c3ccccc3)CC2)cc1` (stereo partly drawn) [Compound I-94] came in with a Ki at hM3 muscarinic receptor (hM3 Muscarinic Receptor Binding, data rounded to nearest 0.1 nM) of 100 pM. For the same molecule, the EC50 on hβ2 adrenergic receptor was 1000 pM. The inhibition in vivo at 0.1 mg in assay [1] is more than 30%.
Turning to `CC(Cc1ccc(F)c(CC(=O)NCc2ccc(N(C)C(=O)CCN3CCC(OC(=O)Nc4ccccc4-c4ccccc4)CC3)cc2)c1)NC[C@H](O)c1ccc(O)c2[nH]c(=O)ccc12` (stereo partly drawn) [Compound I-95], at hM3 muscarinic receptor, the Ki came to 200 pM. In addition, the EC50 on hβ2 adrenergic receptor turned out to be 1000 pM. In addition, in assay [1], the inhibition in vivo at 0.1 mg is more than 30%.
